“Also recorded” adds a separate entry of the source. Read-outs that look alike come from different tables or passages of the source.
What was measured:
[1] = cited from earlier work
DGAT −/−mice = test: Hepatic triglyceride levels in DGAT +/− and DGAT −/− mice dosed with AEGR-733; assay type: in vivo; settings: DGAT −/− mice treated with AEGR-733 compared to DGAT +/− mice treated with AEGR-733; oral gavage for four successive days, chow diet, euthanized approximately 6 hours after the last dose
Experimental: DGAT +/−mice or DGAT −/−mice (Jackson Laboratory, Me., U.S.A.) were fed a chow diet ad libitum. Mice were dosed by oral gavage for four successive days with AEGR-733 or with vehicle control at about 9:00 AM. AEGR-733 was dissolved in M-pyrol and diluted to appropriate concentration in vehicle. Final vehicle composition was 10% M-pyrol, 80% water, 5% cremophore, and 5% ethanol. Dosing volume was 200 μl. The mice were euthanized approximately 6 hours after the last dose. Blood was obtained at time of sacrifice by orbital eye bleed and plasma was made for determination of total cholesterol (TC), high density lipoprotein cholesterol (HDL-C), triglyceride (TG) and non-HDL-C.

[2] = 25 mg/day, some patients, monotherapy, cited from earlier work
[3] = clinical studies, dosages of 80 mg/day or greater

Structure (SMILES)	adverse events ([1]; 80 mg/day)	adverse events ([1]; 160 mg/day)	adverse events [1, 3]	therapeutic effectiveness [1, 3]	hepatic triglyceride levels (DGAT −/−mice)	adverse events [2]	adverse events ([2]; listed as BMS-201038)
Cc1cc(C)c2c3ccccc3n(Cc3ccc([C@@H](C(=O)N[C@H](CO)c4ccccc4)C4CCCC4)cc3)c2n1 [implitapide, (2S)-2-cyclopentyl-2-[4-[(2,4-dimethyl-9H-pyrido[2,3-b]indol-9-yl)methyl]phenyl]-N-[(1S)-2-hydroxy-1-phenylethyl]ethanamide]	gastrointestinal disorders, abnormalities in liver function and/or hepatic steatosis	gastrointestinal disorders, abnormalities in liver function and/or hepatic steatosis	gastrointestinal disturbances, abnormalities in liver function, and hepatic steatosis	therapeutically effective	–	–	–
O=C(NC1CCN(CCCCC2(C(=O)NCC(F)(F)F)c3ccccc3-c3ccccc32)CC1)c1ccccc1-c1ccc(C(F)(F)F)cc1 [AEGR-733, N-(2,2,2-Trifluorethyl)-9-[4-[4-[[[4′-(trifluoromethyl)[1,1′biphenyl]-2-Yl]carbonyl]amino]-1-piperidinyl]butyl]9H-fluorene-9-carboxamide]	–	–	–	–	significantly reduced; also recorded: significantly lower	gastrointestinal disorders, abnormalities in liver function and/or hepatic steatosis	gastrointestinal disturbances, abnormalities in liver function, and hepatic steatosis
